For one assay, the system named is senescent A549 cells. The experiment in a line: Senescence assay: viability of senescent A549 cells (CellTiter-Glo or XTT). In kind it is cell-based. The settings on record: chemotherapy-induced senescent A549 cells, compounds incubated 24-72 hours, viability relative to untreated control, read-out: A549_SEN IC50 (Absolute IC50 average). The method, then:
(§1) Cells were maintained in DMEM media (high glucose, 4 mM L-glutamine, no sodium pyruvate) supplemented with 10% fetal bovine serum in a humidified incubator at 37° C. with 5% carbon dioxide. Senescence was induced via treatment with a sublethal concentration of chemotherapy (bleomycin, gemcitabine, doxorubicin, 5-fluorouridine, mitomycin C), followed by a rest period without chemotherapy similarly to what is reported by others in the field (e.g., Aoshiba et al., 2003 Eur Respir J 22:436-443). Senescence was qualified by low EdU (5-ethynyl-2′-deoxyuridine) incorporation and high SA-β-Gal (senescence-associated beta-galactosidase) staining compared to proliferating untreated cells. Senescent cells were plated into 96-well plates at a density of 5-15,000 cells/well. The next day, compounds were added in duplicate across ten different concentrations spanning roughly four Log 10 units. Cells were incubated with the compounds for 24-72 hours, at which point viability was quantified using CellTiter-Glo (Promega) or XTT (R&D Systems). The viability for treated cells was determined relative to untreated control cells. The log of the compound concentration vs. normalized mean viability was fit to a four parameters Hill function with variable slope. The bottom was constrained to be greater than zero. The X mean value for Y=50 was interpolated to determine the absolute IC50. The results in Table 1 indicate that many of the compounds are active in cells and can induce a dose dependent decrease in the viability of senescent A549 and IMR90 cells.
For orientation: Cellular ATP, detected with luciferase, serves as a proxy for viable cell number.

In a further assay the test system is senescent IMR90 cells. The experiment in a line: Senescence assay: viability of senescent IMR90 cells (CellTiter-Glo or XTT). In kind it is cell-based. The note with it: Homo sapiens, IMR-90; chemotherapy-induced senescent IMR90 cells; compounds incubated 24-72 hours; viability relative to untreated control; read-out: IMR90_SEN IC50 (Absolute IC50 average). As to the method: as §1

Like-named read-outs stand apart in the source and are kept apart here.

By IC50 is commonly meant the point on the concentration scale where inhibition reaches its midpoint. With `Cc1cc(C(=O)c2ccc(-c3cnn(CC45CC6(OCCN7CCOCC7)C[C@](C)(C4)C[C@](C)(C5)C6)c3C)c(C(=O)NS(=O)(=O)CCCCCC(=O)N[C@H](C(=O)N3C[C@H](O)C[C@H]3C(=O)N[C@@H](C)c3ccc(-c4scnc4C)cc3)C(C)(C)C)n2)nnc1Nc1nc2ccccc2s1` [Compound 4, (2S,4R)-1-[(2S)-2-[6-({6-[6-(1,3-benzothiazol-2-ylamino)-5-methylpyridazine-3-carbonyl]-3-(1-{[(1S,3R,5S,7R)-3,5-dimethyl-7-[2-(morpholin-4-yl)ethoxy]adamantan-1-yl]methyl}-5-methylpyrazol-4-yl)pyridin-2-yl}formamidosulfonyl)hexanamido]-3,3-dimethylbutanoyl]-4-hydroxy-N-[(1S)-1-[4-(4-methyl-1,3-thiazol-5-yl)phenyl]ethyl]pyrrolidine-2-carboxamide], the IC50 in the assay with senescent A549 cells lay in the range of 100 to 1000 nM.

With `Cc1cc(C(=O)c2ccc(-c3cnn(CC45CC6(C)CC(C)(C4)CC(OCCN4CCOCC4)(C6)C5)c3C)c(C(=O)NS(=O)(=O)c3ccc(N4CC(C(=O)N[C@H](C(=O)N5C[C@H](O)C[C@H]5C(=O)N[C@H](C)c5ccc(-c6scnc6C)cc5)C(C)(C)C)C4)cc3)n2)nnc1Nc1nc2ccccc2s1` [Compound 7, 6-[6-(1,3-benzothiazol-2-ylamino)-5-methylpyridazine-3-carbonyl]-3-(1-{[(1S,3R,5S,7R)-3,5-dimethyl-7-[2-(morpholin-4-yl)ethoxy]adamantan-1-yl]methyl}-5-methylpyrazol-4-yl)-N-[4-(3-{[(2S)-1-[(2S,4R)-4-hydroxy-2-{[(1S)-1-[4-(4-methyl-1,3-thiazol-5-yl)phenyl]ethyl]carbamoyl}pyrrolidin-1-yl]-3,3-dimethyl-1-oxobutan-2-yl]carbamoyl}azetidin-1-yl)benzenesulfonyl]pyridine-2-carboxamide], the IC50 in the assay with senescent A549 cells (Homo sapiens) is 100 to 1000 nM.

Turning to `Cc1cc(C(=O)c2ccc(-c3cnn(CC45CC6(C)CC(C)(C4)CC(OCCO)(C6)C5)c3C)c(C(=O)O)n2)nnc1Nc1nc2ccccc2s1` [Compound 1, 6-(6-(benzo[d]thiazol-2-ylamino)-5-methylpyridazine-3-carbonyl)-3-(1-(((1r,3s,5R,7S)-3-(2-hydroxyethoxy)-5,7-dimethyladamantan-1-yl)methyl)-5-methyl-1H-pyrazol-4-yl)picolinic acid], the IC50 with senescent IMR90 cells lay within 100 to 1000 nM; with senescent A549 cells (Homo sapiens) it was 1000 to 10000 nM.

With `C#Cc1ccc(CNC(=O)[C@@H]2C[C@H](O)CN2C(=O)[C@@H](NC(=O)CCCCCS(=O)(=O)NC(=O)c2nc(C(=O)c3cc(C)c(Nc4nc5ccccc5s4)nn3)ccc2-c2cnn(CC34CC5(C)CC(C)(C3)CC(OCCN3CCOCC3)(C5)C4)c2C)C(C)(C)C)cc1` [Compound 6, (2S,4R)-1-[(2S)-2-[6-({6-[6-(1,3-benzothiazol-2-ylamino)-5-methylpyridazine-3-carbonyl]-3-(1-{[(1S,3R,5S,7R)-3,5-dimethyl-7-[2-(morpholin-4-yl)ethoxy]adamantan-1-yl]methyl}-5-methylpyrazol-4-yl)pyridin-2-yl}formamidosulfonyl)hexanamido]-3,3-dimethylbutanoyl]-N-[(4-ethynylphenyl)methyl]-4-hydroxypyrrolidine-2-carboxamide], the IC50 in the assay with senescent A549 cells (Homo sapiens) is 10 to 100 nM.

On to `Cc1cc(C(=O)c2ccc(-c3cnn(CC45CC6(OCCN7CCOCC7)C[C@](C)(C4)C[C@](C)(C5)C6)c3C)c(C(=O)NS(=O)(=O)CCCCCC(=O)N[C@H](C(=O)N3C[C@@H](O)C[C@H]3C(=O)N[C@@H](C)c3ccc(-c4scnc4C)cc3)C(C)(C)C)n2)nnc1Nc1nc2ccccc2s1` [Compound 5, (2S,4S)-1-[(2S)-2-[6-({6-[6-(1,3-benzothiazol-2-ylamino)-5-methylpyridazine-3-carbonyl]-3-(1-{[(1S,3R,5S,7R)-3,5-dimethyl-7-[2-(morpholin-4-yl)ethoxy]adamantan-1-yl]methyl}-5-methylpyrazol-4-yl)pyridin-2-yl}formamidosulfonyl)hexanamido]-3,3-dimethylbutanoyl]-4-hydroxy-N-[(1S)-1-[4-(4-methyl-1,3-thiazol-5-yl)phenyl]ethyl]pyrrolidine-2-carboxamide], for which the IC50 in the assay on senescent A549 cells lay in the range of 100 to 1000 nM.

`Cc1cc(C(=O)c2nc(C(=O)O)c(CCCOc3ccc(C#CCN(C)C)cc3F)s2)nnc1Nc1nc2ccccc2s1` [Compound 3, 2-(6-(benzo[d]thiazol-2-ylamino)-5-methylpyridazine-3-carbonyl)-5-(3-(4-(3-(dimethylamino)prop-1-yn-1-yl)-2-fluorophenoxy)propyl) thiazole-4-carboxylic acid]: the figures for the IC50 with senescent IMR90 cells and with senescent A549 cells (Homo sapiens) were 1000 to 10000 nM and 100 to 1000 nM, respectively.

For `Cc1cc(C(=O)c2ccc(-c3cnn(CC45CC6(C)CC(C)(C4)CC(OCCN4CCOCC4)(C6)C5)c3C)c(C(=O)O)n2)nnc1Nc1nc2ccccc2s1` [Compound 2, 6-(6-(benzo[d]thiazol-2-ylamino)-5-methylpyridazine-3-carbonyl)-3-(1-(((1r,3R,5S,7s)-3,5-dimethyl-7-(2-morpholinoethoxy)adamantan-1-yl)methyl)-5-methyl-1H-pyrazol-4-yl)picolinic acid], the IC50 with senescent IMR90 cells and with senescent A549 cells (Homo sapiens) was 10 to 100 nM throughout.

Values taken from patent US20250171435A1, “Carbon Linked BCL Inhibitors and Senolytic Compounds and Uses Thereof” (Rubedo Life Sciences, Inc., priority 2023, published 2025).
